Experimental data published in patent publication US10717737B2, “Cyclopropylamines as LSD1 inhibitors” (Incyte Corporation, priority 2014, dated 2020).
pIC50: −log10 of the molar value.

Molecular target: LSD1 (Homo sapiens (Human), UniProt O60341)
Assay: biochemical
Description: LANCE LSD1/KDM1A demethylase assay—10 μL of 1 nM LSD-1 enzyme (ENZO BML-SE544-0050) in the assay buffer (50 mM Tris, pH 7.5, 0.01% Tween-20, 25 mM NaCl, 5 mM DTT) were preincubated for 1 hour at 25° C. with 0.8 μL compound/DMSO dotted in black 384 well polystyrene plates. […] After stopping the reactions plates were incubated for 30 minutes and read on a PHERAstar FS plate reader (BMG Labtech).

N#Cc1ccc(CC2(CN[C@@H]3C[C@H]3c3ccccc3)CCN(CC3(C(=O)O)CC3)CC2)c(F)c1 [Example 74, 1-{[4-(4-cyano-2-fluorobenzyl)-4-({[(1R,2S)-2-phenylcyclopropyl]amino}methyl)piperidin-1-yl]methyl}cyclopropanecarboxylic Acid]
pIC50: > 7.00

COCC1(CN[C@@H]2C[C@H]2c2ccccc2)CCN(C(=O)N2CCC(O)CC2)CC1 [Example 112, 1-{[4-(methoxymethyl)-4-({[(1R,2S)-2-phenylcyclopropyl]amino}methyl)piperidin-1-yl]carbonyl}piperidin-4-ol]
pIC50: > 7.00
